Assay results: US4377587A, “Arylamine derivatives and use thereof as microbicides” (Ciba-Geigy Corporation, priority 1980, dated 1983)
Values after ≈ are worked out from the molar mass of the structure shown.

Assays:
Phytophthora infestans [1] = assay type: in vivo, Phytophthora infestans (on tomato plants); conditions: tomato, spray 0.06% active ingredient, infested after 24 hours, evaluated after 5 days at 20° C.
Phytophthora infestans [2] = assay type: in vivo, Phytophthora infestans (on tomato plants); conditions: tomato, sprayed 0.06% active ingredient 22 hours after infestation, evaluated 5 days after infestation
Pythium debaryanum [3] = experiment: Action on Pythium debaryanum on sugar beets, (a) after soil application; assay type: in vivo; conditions: sugar beet, 20 ppm of active ingredient based on volume of soil, 2-3 weeks at 20°-24° C.
From the text: (§1) Action on Pythium debaryanum on sugar beets
(a) Action after soil application
The fungus is cultivated on carrot chips nutrient solution and added to a mixture of earth and sand. Flower pots are filled with the infected soil, in which sugar beet seeds are then sown. Immediately after sowing, the test preparations formulated as wettable powders are poured in the form of aqueous suspensions over the soil (20 ppm of active ingredient, based on the volume of the soil). The pots are then stood for 2-3 weeks in a greenhouse at 20°-24° C. The soil is kept uniformly moist by gently spraying it with water. The emergence of the sugar beet plants as well as the number of healthy and sick plants are ascertained in evaluating the test.

Pythium debaryanum [4] = experiment: Action on Pythium debaryanum on sugar beets, (b) after seed dressing application; assay type: in vivo; conditions: sugar beet, seed dressing 0.06%, 2-3 weeks at c. 20° C.
Description: as §1
(b) Action after seed dressing application
The fungus is cultivated on carrot chip nutrient solution and added to a mixture of earth and sand. Flower pots are filled with the infected soil and sugar beet seeds which have been treated with the test preparations formulated as seed dressing powders are sown therein (0.06% of one of the compounds of Tables 1 and 2). The pots are then stood in a greenhouse for 2-3 weeks at c. 20° C. The soil is kept uniformly moist by gently spraying it with water. The emergence of the sugar beet plants is ascertained in evaluating the test.

Water solubility = assay type: physicochemical; conditions: 25° C.
From the text: Determination of physico-chemical data
(a) Reduced water solubility

Podosphaera leucotricha = experiment: Residual-protective action against Podosphaera leucotricha on apples; assay type: in vivo; conditions: apple seedlings, spray 0.06% of active ingredient, evaluated 12 days after infection
Description: Residual-protective action against Podosphaera leucotricha on apples
Apple seedlings in the 5-leaf stage are sprayed with a spray mixture (0.06% of active ingredient) prepared from a wettable powder formulation of the active ingredient. After 24 hours the treated plants are infected with a conidia suspension of the fungus and placed in a climatic chamber at 70% relative humidity and 20° C. Evaluation of fungus infestation is made 12 days after infection.

Erysiphe graminis = experiment: Action against Erysiphe graminis on barley, residual protective action; assay type: in vivo, Erysiphe graminis (on barley plants); conditions: 0.02% active ingredient sprayed, infected after 3-4 hours, evaluated after 10 days
Description: Action against Erysiphe graminis on barley
Residual protective action
Barley plants about 8 cm in height are sprayed with a spray mixture (0.02% of active ingredient) prepared from the active ingredient formulated as a wettable powder. The treated plants are dusted with conidia of the fungus after 3-4 hours. The infected barley plants are then stood in a greenhouse at about 22° C. The extent of the fungus infection is evaluated after 10 days.

Compound | fungus attack compared with untreated control plants (100% attack), residual-protective (Phytophthora infestans [1]) | fungus attack compared with untreated and infected control plants (100% attack), residual curative (Phytophthora infestans [2]) | emergent plants (fully effective against Pythium pathogens), soil application (Pythium debaryanum [3]) | emergent plants (fully effective against Pythium pathogens), seed dressing application (Pythium debaryanum [4]) | also measured
CCOC(=O)C(C)N(C(=O)COC)c1c(C)ccc([N+](=O)[O-])c1C (stereo not shown) [Compound 74] | less than 10% | less than 10% | – | – | –
COCC(=O)N(c1c([N+](=O)[O-])ccc(C)c1C)C(C)C(=O)OC (stereo not shown) [Compound 59, N-(1'methoxycarbonylethyl)-N-methoxyacetyl-2,3-dimethyl-6-nitroaniline] | less than 10% | less than 10% | over 90% | over 90% | –
COCC(=O)N(c1c(C)cccc1C)[C@@H](C)C(=O)OC [Metalaxyl, N-(2,6-dimethylphenyl)-N-(2'-methoxyacetyl)alanine methyl ester, reference compound] | – | – | – | – | solubility (Water solubility): 0.8 mg/mL (≈ 2860 µM)
COCC(=O)N(c1c(C)cc([N+](=O)[O-])c2ccccc12)C(C)C(=O)OC (stereo not shown) [Compound 606] | less than 10% | less than 10% | over 90% | over 90% | fungus attack compared with untreated and infected control seedlings (100% attack) (Podosphaera leucotricha): less than 10%
C#CCN(C(=O)COC)c1c(C)ccc([N+](=O)[O-])c1C [Compound 117] | less than 10% | – | – | – | –
COC(=O)C(C)N(C(=O)C1CCCO1)c1c(C)cc([N+](=O)[O-])c2ccccc12 (stereo not shown) [Compound 607] | less than 10% | – | over 90% | over 90% | –
C=CCN(C(=O)COC)c1c(C)ccc([N+](=O)[O-])c1C [Compound 111] | less than 10% | – | – | – | –
COCC(=O)N(c1ccc([N+](=O)[O-])c2ccccc12)C(C)C(=O)OC (stereo not shown) [Compound 611] | less than 10% | less than 10% | – | – | –
CCOCC(=O)N(c1c(C)c(C)c([N+](=O)[O-])c(C)c1C)C(C)C(=O)OC (stereo not shown) [Compound 142] | less than 10% | less than 10% | – | – | fungus attack compared with control plants (100% attack) (Erysiphe graminis): less than 10%
COCC(=O)N(c1c(C)c(C)c([N+](=O)[O-])c(C)c1C)C(C)C(=O)OC (stereo not shown) [Compound 141] | less than 10% | less than 10% | – | – | –
C#CCN(C(=O)COCC)c1c(C)ccc([N+](=O)[O-])c1C [Compound 122] | less than 10% | – | – | – | –
CCOCC(=O)N(c1c(C)ccc([N+](=O)[O-])c1C)C(C)C(=O)OC(C)C (stereo not shown) [Compound 73] | less than 10% | – | over 90% | over 90% | fungus attack compared with untreated and infected control seedlings (100% attack) (Podosphaera leucotricha): less than 10%
COC(=O)C(C)N(C(=O)COC(C)C)c1c(C)c(C)c(N)c(C)c1C (stereo not shown) [Compound 160] | – | – | over 90% | over 90% | –
COCC(=O)N(c1c([N+](=O)[O-])ccc2ccccc12)C(C)C(=O)OC (stereo not shown) [Compound 400, N-(1'methoxycarbonylethyl)-N-methoxyacetyl-2-nitronaphthylamine] | less than 10% | less than 10% | over 90% | over 90% | –
COCC(=O)N(c1c(C)c(C)c(N)c(C)c1C)C(C)C(=O)OC (stereo not shown) [Compound 158] | less than 10% | – | over 90% | over 90% | –
COC(=O)C(C)N(C(=O)C1CC1)c1ccc([N+](=O)[O-])cc1Cl (stereo not shown) [Compound 138] | less than 10% | – | – | – | –
COCC(=O)N(c1c(Cl)cccc1[N+](=O)[O-])C(C)C(=O)OC (stereo not shown) [Compound 57] | less than 10% | – | – | – | –
COC(=O)C(C)N(C(=O)C1CC1)c1ccc(N)cc1Cl (stereo not shown) [Compound 139] | less than 10% | – | – | – | –
CCOCC(=O)N(c1c(Cl)ccc(N)c1C)C(C)C(=O)OC (stereo not shown) [Compound 88] | less than 10% | – | – | – | –
COC(=O)C(C)N(C(=O)C1CCCO1)c1c(C)c(C)c([N+](=O)[O-])c(C)c1C (stereo not shown) [Compound 144] | less than 10% | – | – | – | –
COC(=O)C(C)N(C(=O)C1CCCO1)c1c(C)ccc([N+](=O)[O-])c1C (stereo not shown) [Compound 35] | less than 10% | – | – | – | –
CCOCC(=O)N(c1c(C)c(C)c(N)c(C)c1C)C(C)C(=O)OC (stereo not shown) [Compound 159] | less than 10% | – | – | – | –
COCC(=O)N(c1c(C)cc(C)c([N+](=O)[O-])c1C)C(C)C(=O)OC (stereo not shown) [Compound 29] | less than 10% | less than 10% | over 90% | over 90% | –
COCC(=O)N(c1c(N)cccc1Cl)C(C)C(=O)OC (stereo not shown) [Compound 6] | less than 10% | less than 10% | over 90% | over 90% | fungus attack compared with untreated and infected control seedlings (100% attack) (Podosphaera leucotricha): less than 10%
COCC(=O)N(c1c(C)cc([N+](=O)[O-])c(C)c1C)C(C)C(=O)OC (stereo not shown) [Compound 78] | less than 10% | – | – | – | –
COC(=O)C(C)N(C(=O)CS(C)(=O)=O)c1c(C)ccc([N+](=O)[O-])c1C (stereo not shown) [Compound 38] | less than 10% | – | – | – | fungus attack compared with control plants (100% attack) (Erysiphe graminis): less than 10%
COC(=O)C(C)N(C(=O)CS(C)(=O)=O)c1c(C)ccc(N)c1C (stereo not shown) [Compound 14] | less than 10% | – | – | – | –
COC(=O)C(C)N(C(=O)C1CCCO1)c1c(C)c(C)c(N)c(C)c1C (stereo not shown) [Compound 161] | less than 10% | less than 10% | – | – | –
CCOCC(=O)N(c1cccc([N+](=O)[O-])c1C)C(C)C(=O)OC (stereo not shown) [Compound 104] | – | – | – | – | fungus attack compared with control plants (100% attack) (Erysiphe graminis): less than 10%
